In patent US11401277B2, “Anti-bacterial heterocyclic compounds and their synthesis” (Bugworks Research, Inc., priority 2017, dated 2022):
Values after ≈ are worked out from the molar mass of the structure shown. Values joined by “and” are separate entries in the source; they are usually repeats but may differ in a detail not shown here. Equal entries are not always repeated. Where two headings read alike, the source gives them in different places.

What was measured:
[1] = biological target: E. coli topoisomerase IV (Escherichia coli, UniProt P0AFI2+P20083); assay: biochemical
[2] = system: K. pneumoniae [ATCC13883]; assay: Neutropenic Thigh Infection Model in Rat, K. pneumoniae; type: in vivo; settings: for MEAN ± SD (Log10 CFU/g thigh) / Mean Log 10 CFU/thigh reduction (wrt 2 h PI control: 5.04 Log10CFU/g thigh) / Log10 CFU/g thigh: i.v., 1 h infusion; for Log10 CFU/g thigh: individual animals, 10 hr post infection
[3] = biological target: T1, hERG potassium channel (Homo sapiens, UniProt Q12809); assay: hERG inhibition assay, QPatch HTX automated electrophysiology; type: cell-based; settings: CHO cell line expressing hERG; whole-cell patch clamp, room temperature
T1 construct: Chinese Hamster Ovary cell line stably expressing the full-length hERG potassium channel; expressed in transfected cells
Procedure: The compounds were tested for inhibition of the human ether a go-go related gene (hERG) K+ channel using QPatch HTX automated electrophysiology.
Compounds of Formula I were solubilised to 100 mM in DMSO before dilution in HBPS to 300 μM.
Electrophysiological recordings were made from a Chinese Hamster Ovary cell line stably expressing the full-length hERG potassium channel. Single cell ionic currents were measured in whole-cell patch clamp configuration at room temperature (21-23° C.) using the QPatch HTX platform (Sophion). Intracellular solution contained (mM): 120 KF, 20 KCl, 10 EGTA, 10 HEPES and was buffered to pH 7.3. […] Cells were clamped at a holding potential of −80 mV. Cells were stepped to +20 mV for 2 s then −40 mV for 3 s before returning to the holding potential. This sweep was repeated 10 times at 10 s intervals. hERG currents were measured from the tail step and referenced to the holding current. Compounds were then incubated for 2 minutes prior to a second measurement of ion channel current using an identical pulse train.

[4] = system: S. aureus ATCC 29213; assay: MIC studies in LB Media; type: cell-based; settings: Staphylococcus aureus, ATCC29213, MIC = 90% inhibition of growth, read-out: Minimum Inhibitory Concentration in LB Media, S. au
Procedure: (§1) Bacterial cultures that were stored as glycerol stocks at −80° C. were sub cultured on LB agar plates to obtain isolated colonies. A single colony of each strain was cultured in LB broth. The cultures were incubated at 37° C., 200 rpm till they reach an optical density (OD at 600 nm) of 0.8 to 1. […] Test compounds were dissolved in dimethyl sulfoxide (DMSO) to a stock concentration of 4 mg/ml. A two-fold dilution series of this DMSO stock was prepared in a 96 well V bottom microtitre plate from rows A to H. A 3 μL volume of these dilutions were transferred to a 96-well flat bottom microtitre assay plate. Controls to monitor the effects of DMSO and media sterility were included. Each well was inoculated with 150 μL of the above diluted culture. The plates were incubated at 37° C. overnight in a humidified incubator. The following morning, the plates were read using a Spectrophotometer at 600 nm wavelength.

[5] = system: P. aurigenosa ATCC 27853; assay: MIC studies in LB Media; type: cell-based; settings: Pseudomonas aeruginosa, ATCC27853, read-out: Minimum Inhibitory Concentration in LB Media, P. ae
Procedure: as §1

[6] = system: K. pneumoniae ATCC 13883; assay: MIC studies in LB Media; type: cell-based; settings: Klebsiella pneumoniae, ATCC13883, read-out: Minimum Inhibitory Concentration in LB Media, K. pn
Procedure: as §1

[7] = system: A. baumannii ATCC 19606; assay: MIC studies in LB Media; type: cell-based; settings: Acinetobacter baumannii, ATCC19606, read-out: Minimum Inhibitory Concentration in LB Media, A. ba
Procedure: as §1

[8] = system: Enterobacter cloacae ATCC 13047; assay: MIC studies in LB Media; type: cell-based; settings: ATCC13047, read-out: Minimum Inhibitory Concentration in LB Media, E. cl
Procedure: as §1

[9] = system: Morganella morganii ATCC 25830; assay: MIC studies in LB Media; type: cell-based; settings: ATCC25830, read-out: Minimum Inhibitory Concentration in LB Media, M. mo
Procedure: as §1

[10] = system: Citrobacter freundii ATCC 43864; assay: MIC studies in LB Media; type: cell-based; settings: ATCC43864, read-out: Minimum Inhibitory Concentration in LB Media, C. fr
Procedure: as §1

[11] = system: Proteus mirabilis ATCC 43071; assay: MIC studies in LB Media; type: cell-based; settings: ATCC43071, read-out: Minimum Inhibitory Concentration in LB Media, P. mi
Procedure: as §1

[12] = system: E. coli ATCC 25922; assay: MIC studies in LB Media; type: cell-based; settings: Escherichia coli, ATCC25922, read-out: Minimum Inhibitory Concentration in LB Media, E. co
Procedure: as §1

[13] = system: E. faecalis ATCC 29212; assay: MIC studies in LB Media; type: cell-based; settings: Enterococcus faecalis, ATCC29212, read-out: Minimum Inhibitory Concentration in LB Media, E. fa
Procedure: as §1

[14] = system: P. aurigenosa clinical strains; assay: Susceptibility (MIC50 and MIC90 determination) studies, clinical strains; type: cell-based; settings: CLSI
[15] = biological target: E. coli DNA gyrase (Escherichia coli, UniProt P0AES4+P0AES6); assay: biochemical
[16] = system: K. pneumoniae clinical strains; assay: Susceptibility (MIC50 and MIC90 determination) studies, clinical strains; type: cell-based; settings: CLSI
[17] = system: E. coli [ATCC25922]; assay: Neutropenic Thigh Infection Model in Rat, E. coli; type: in vivo; settings: for MEAN ± SD (Log10 CFU/g thigh) / Mean Log 10 CFU/thigh reduction (wrt 2 h PI control: 5.04 Log10CFU/g thigh) / Log10 CFU/g thigh: i.v., 1 h infusion; for Log10 CFU/g thigh: individual animals, 10 hr post infection
[18] = Klebsiella pneumoniae, Kpn clinical strains

E. coli DNA gyrase, sequence (P0AES4 whole entry, one chain of several): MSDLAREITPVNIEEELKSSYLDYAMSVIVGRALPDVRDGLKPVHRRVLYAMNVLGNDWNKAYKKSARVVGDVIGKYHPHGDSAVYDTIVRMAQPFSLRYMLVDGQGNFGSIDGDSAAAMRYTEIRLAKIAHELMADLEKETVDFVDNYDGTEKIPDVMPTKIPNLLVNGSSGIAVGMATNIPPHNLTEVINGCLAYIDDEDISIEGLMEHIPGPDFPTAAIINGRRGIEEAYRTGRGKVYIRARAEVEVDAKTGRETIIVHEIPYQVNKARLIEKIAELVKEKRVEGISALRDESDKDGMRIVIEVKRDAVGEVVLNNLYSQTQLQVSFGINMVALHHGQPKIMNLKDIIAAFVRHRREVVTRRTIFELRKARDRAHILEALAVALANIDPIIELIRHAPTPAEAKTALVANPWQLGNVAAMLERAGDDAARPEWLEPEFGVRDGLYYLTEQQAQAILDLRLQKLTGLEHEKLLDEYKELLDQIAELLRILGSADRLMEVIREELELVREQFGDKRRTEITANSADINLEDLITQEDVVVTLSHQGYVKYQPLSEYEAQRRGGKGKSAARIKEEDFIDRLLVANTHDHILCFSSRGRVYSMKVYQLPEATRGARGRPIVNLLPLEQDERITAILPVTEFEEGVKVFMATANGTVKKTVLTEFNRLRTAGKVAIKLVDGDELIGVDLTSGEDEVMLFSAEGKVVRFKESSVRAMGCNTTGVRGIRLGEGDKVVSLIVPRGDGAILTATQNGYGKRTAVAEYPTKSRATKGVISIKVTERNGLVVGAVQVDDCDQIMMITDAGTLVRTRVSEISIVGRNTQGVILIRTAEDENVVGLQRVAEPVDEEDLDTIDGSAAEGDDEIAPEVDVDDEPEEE
E. coli topoisomerase IV, sequence (P20083 whole entry, the tested form may be a part): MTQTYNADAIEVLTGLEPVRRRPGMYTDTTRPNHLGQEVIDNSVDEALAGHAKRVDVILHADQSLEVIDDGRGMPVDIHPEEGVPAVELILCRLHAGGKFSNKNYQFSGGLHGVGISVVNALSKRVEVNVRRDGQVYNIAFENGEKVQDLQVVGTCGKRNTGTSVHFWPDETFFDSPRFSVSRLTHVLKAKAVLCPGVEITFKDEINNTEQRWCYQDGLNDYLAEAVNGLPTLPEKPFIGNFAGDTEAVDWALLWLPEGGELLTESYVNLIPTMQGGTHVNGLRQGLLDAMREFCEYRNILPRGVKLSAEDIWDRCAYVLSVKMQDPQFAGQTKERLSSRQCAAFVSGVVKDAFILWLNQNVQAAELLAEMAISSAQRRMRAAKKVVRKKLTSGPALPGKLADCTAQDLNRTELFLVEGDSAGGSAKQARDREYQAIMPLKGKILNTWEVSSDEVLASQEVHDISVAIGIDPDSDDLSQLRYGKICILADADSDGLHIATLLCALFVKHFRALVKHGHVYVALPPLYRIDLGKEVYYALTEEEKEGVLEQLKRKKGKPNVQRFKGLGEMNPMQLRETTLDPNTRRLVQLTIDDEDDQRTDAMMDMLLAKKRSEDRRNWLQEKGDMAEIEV
E. coli topoisomerase IV, sequence (P0AFI2 whole entry, the tested form may be a part): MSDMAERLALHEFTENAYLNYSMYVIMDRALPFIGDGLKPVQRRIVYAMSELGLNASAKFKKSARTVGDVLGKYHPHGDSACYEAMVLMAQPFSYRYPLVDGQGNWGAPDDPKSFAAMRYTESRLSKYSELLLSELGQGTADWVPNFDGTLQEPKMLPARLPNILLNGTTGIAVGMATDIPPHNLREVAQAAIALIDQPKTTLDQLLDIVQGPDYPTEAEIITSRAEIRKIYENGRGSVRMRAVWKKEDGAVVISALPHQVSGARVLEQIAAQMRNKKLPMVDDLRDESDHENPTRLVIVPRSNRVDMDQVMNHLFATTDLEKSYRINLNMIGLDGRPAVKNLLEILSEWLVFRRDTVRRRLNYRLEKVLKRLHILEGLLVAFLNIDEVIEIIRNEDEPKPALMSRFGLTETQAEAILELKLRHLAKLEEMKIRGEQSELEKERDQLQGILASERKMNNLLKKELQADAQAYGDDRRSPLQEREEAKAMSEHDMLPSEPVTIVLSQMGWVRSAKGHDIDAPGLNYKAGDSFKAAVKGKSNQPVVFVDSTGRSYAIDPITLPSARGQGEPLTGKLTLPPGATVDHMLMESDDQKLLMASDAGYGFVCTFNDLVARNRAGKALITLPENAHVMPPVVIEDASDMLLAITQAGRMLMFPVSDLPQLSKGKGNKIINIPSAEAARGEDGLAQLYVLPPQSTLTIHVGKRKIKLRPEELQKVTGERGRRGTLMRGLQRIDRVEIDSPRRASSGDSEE
T1 sequence (Q12809 whole entry): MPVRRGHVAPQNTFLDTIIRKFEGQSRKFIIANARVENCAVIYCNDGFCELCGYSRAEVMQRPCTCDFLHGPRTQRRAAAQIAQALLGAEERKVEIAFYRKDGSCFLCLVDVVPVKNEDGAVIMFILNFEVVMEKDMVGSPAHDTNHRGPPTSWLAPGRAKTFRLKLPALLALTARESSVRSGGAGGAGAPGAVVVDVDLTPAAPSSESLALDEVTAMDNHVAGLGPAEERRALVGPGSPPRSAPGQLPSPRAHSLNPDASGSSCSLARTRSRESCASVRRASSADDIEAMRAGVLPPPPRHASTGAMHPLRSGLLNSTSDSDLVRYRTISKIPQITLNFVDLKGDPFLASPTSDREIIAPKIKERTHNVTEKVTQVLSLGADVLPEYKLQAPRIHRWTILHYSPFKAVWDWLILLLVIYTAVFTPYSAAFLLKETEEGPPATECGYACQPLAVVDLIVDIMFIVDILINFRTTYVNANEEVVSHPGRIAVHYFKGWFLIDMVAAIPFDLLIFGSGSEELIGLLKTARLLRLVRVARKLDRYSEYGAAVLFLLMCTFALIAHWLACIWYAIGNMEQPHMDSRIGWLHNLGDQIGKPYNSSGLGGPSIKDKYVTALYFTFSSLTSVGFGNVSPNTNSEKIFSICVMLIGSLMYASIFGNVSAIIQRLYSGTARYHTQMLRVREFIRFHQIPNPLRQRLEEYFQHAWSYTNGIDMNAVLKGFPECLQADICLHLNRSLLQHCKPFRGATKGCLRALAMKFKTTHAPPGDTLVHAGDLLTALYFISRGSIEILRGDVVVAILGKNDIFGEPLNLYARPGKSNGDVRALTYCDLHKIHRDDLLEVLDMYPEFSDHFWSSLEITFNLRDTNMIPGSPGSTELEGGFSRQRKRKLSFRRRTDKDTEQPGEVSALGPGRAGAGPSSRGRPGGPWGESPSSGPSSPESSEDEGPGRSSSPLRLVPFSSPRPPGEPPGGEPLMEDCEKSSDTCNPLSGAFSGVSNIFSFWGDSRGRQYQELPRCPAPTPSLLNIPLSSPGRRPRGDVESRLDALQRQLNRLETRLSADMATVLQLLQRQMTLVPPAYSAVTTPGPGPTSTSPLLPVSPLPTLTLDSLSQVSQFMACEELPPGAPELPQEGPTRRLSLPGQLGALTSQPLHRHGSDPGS

SMILES: Cn1c(=O)ccc2ccc(F)c(OCCNC[C@H]3CN(c4cnc5c(n4)NC(=O)CO5)C(=O)O3)c21 [Compound 2, (S)-6-(5-(((2-((7-fluoro-1-methyl-2-oxo-1,2-dihydroquinolin-8-yl)oxy)ethyl)amino)methyl)-2-oxooxazolidin-3-yl)-2H-pyrazino[2,3-b][1,4]oxazin-3(4H)-one]
- IC50 ([1]; gel based decatenation assay, read-out: E. coli Topo IV IC50): 0.045 µM
- IC50 ([1]; unit inferred, read-out: IC50 E. coli Topo IV): ≤ 0.05 µM
- MEAN ± SD (Log10 CFU/g thigh) ([2]; 3 mg/kg): 3.91 ± 0.04 Log10 CFU/g thigh
- Mean Log 10 CFU/thigh reduction (wrt 2 h PI control: 5.04 Log10CFU/g thigh) ([2]; 3 mg/kg): 1.13 Log 10 CFU/thigh
- Log10 CFU/g thigh ([2]; 3 mg/kg): 3.95 Log10 CFU/g thigh and 3.87 Log10 CFU/g thigh and 3.91 Log10 CFU/g thigh
- MEAN ± SD (Log10 CFU/g thigh) ([2]; 10 mg/kg): 3.61 ± 0.31 Log10 CFU/g thigh
- Mean Log 10 CFU/thigh reduction (wrt 2 h PI control: 5.04 Log10CFU/g thigh) ([2]; 10 mg/kg): 1.43 Log 10 CFU/thigh
- Log10 CFU/g thigh ([2]; 10 mg/kg): 3.74 Log10 CFU/g thigh and 3.26 Log10 CFU/g thigh and 3.84 Log10 CFU/g thigh
- efficacy with respect to 2 h Post Infection (PI) control (in words) ([2]; 3, 10 and 30 mg/kg, rat thigh K. pneumoniae): significant dose dependent bactericidal efficacy
- IC50 [3]: 124 µM
- MIC [4]: ≤ 0.015 µg/mL
- MIC [5]: 0.5 µg/mL (≈ 1.03 µM)
- MIC [6]: 0.06 µg/mL (≈ 0.124 µM)
- MIC [7]: 0.06 µg/mL (≈ 0.124 µM)
- MIC [8]: 0.125 µg/mL (≈ 0.258 µM)
- MIC [9]: 0.125 µg/mL (≈ 0.258 µM)
- MIC [10]: ≤ 0.03 µg/mL
- MIC [11]: 0.125 µg/mL (≈ 0.258 µM)
- MIC [12]: 0.03 µg/mL (≈ 0.0619 µM)
- MIC [13]: 0.06 µg/mL (≈ 0.124 µM)
- MIC50 ([14]; Pae clinical strains): 1 µg/mL (≈ 2.06 µM)
- MIC90 ([14]; Pae clinical strains): 1 µg/mL (≈ 2.06 µM)
- Minimum (MIC) ([14]; Pae clinical strains, MIC50/MIC90 in μg/ml): 0.031 µg/mL
- MIC ATCC27853 ([14]; Pae reference strain ATCC27853, MIC50/MIC90 in μg/ml): 0.5 µg/mL (≈ 1.03 µM)
- IC50 ([15]; gel based supercoiling assay, read-out: E. coli DNA Gyrase IC50): 0.012 µM
- IC50 ([15]; unit inferred, read-out: IC50 E. coli DNA Gyrase): ≤ 0.05 µM
- MIC50 [16, 18]: 0.125 µg/mL (≈ 0.258 µM)
- MIC90 [16, 18]: 0.5 µg/mL (≈ 1.03 µM)
- Minimum (MIC) ([16]; Kpn clinical strains, MIC50/MIC90 in μg/ml): 0.06 µg/mL
- MIC ATCC13883 ([16]; Kpn reference strain ATCC13883, MIC50/MIC90 in μg/ml): 0.06 µg/mL (≈ 0.124 µM)
- MEAN ± SD (Log10 CFU/g thigh) ([17]; 3 mg/kg): 5.08 ± 0.39 Log10 CFU/g thigh
- Mean Log 10 CFU/thigh reduction (wrt 2 h PI control: 5.04 Log10CFU/g thigh) ([17]; 3 mg/kg): 0.77 Log 10 CFU/thigh
- Log10 CFU/g thigh ([17]; 3 mg/kg): 5.37 Log10 CFU/g thigh and 4.64 Log10 CFU/g thigh and 5.23 Log10 CFU/g thigh
- MEAN ± SD (Log10 CFU/g thigh) ([17]; 10 mg/kg): 4.41 ± 0.18 Log10 CFU/g thigh
- Mean Log 10 CFU/thigh reduction (wrt 2 h PI control: 5.04 Log10CFU/g thigh) ([17]; 10 mg/kg): 1.44 Log 10 CFU/thigh
- Log10 CFU/g thigh ([17]; 10 mg/kg): 4.44 Log10 CFU/g thigh and 4.57 Log10 CFU/g thigh and 4.21 Log10 CFU/g thigh
- MEAN ± SD (Log10 CFU/g thigh) ([17]; 30 mg/kg): 2.83 ± 0.35 Log10 CFU/g thigh
- Mean Log 10 CFU/thigh reduction (wrt 2 h PI control: 5.04 Log10CFU/g thigh) ([17]; 30 mg/kg): 3.02 Log 10 CFU/thigh
- Log10 CFU/g thigh ([17]; 30 mg/kg): 2.66 Log10 CFU/g thigh and 2.6 Log10 CFU/g thigh and 3.24 Log10 CFU/g thigh
- efficacy with respect to 2 h Post Infection (PI) control (in words) ([17]; 3, 10 and 30 mg/kg, rat thigh E. coli): significant dose dependent bactericidal efficacy
